# Measured values published in ChEMBL document CHEMBL3774360, “Potent multitarget FAAH-COX inhibitors: Design and structure-activity relationship studies” (Eur J Med Chem, 2016).
# Calls of active or inactive are those of the source. No cut-off for these calls is given here.
# Tests used:
# [1] = molecular target: Estrogen receptor (Homo sapiens) (UniProt P03372); test: Binding affinity to human estrogen receptor at 10 uM by radioligand binding assay
# [2] = molecular target: Progesterone receptor (Homo sapiens) (UniProt P06401); test: Binding affinity to human progesterone receptor at 10 uM by radioligand binding assay
# [3] = molecular target: Thyrotropin-releasing hormone receptor (Homo sapiens) (UniProt P34981); test: Binding affinity to human TRH1 receptor at 10 uM by radioligand binding assay
# Chain of Thyrotropin-releasing hormone receptor (Homo sapiens) (P34981 whole entry): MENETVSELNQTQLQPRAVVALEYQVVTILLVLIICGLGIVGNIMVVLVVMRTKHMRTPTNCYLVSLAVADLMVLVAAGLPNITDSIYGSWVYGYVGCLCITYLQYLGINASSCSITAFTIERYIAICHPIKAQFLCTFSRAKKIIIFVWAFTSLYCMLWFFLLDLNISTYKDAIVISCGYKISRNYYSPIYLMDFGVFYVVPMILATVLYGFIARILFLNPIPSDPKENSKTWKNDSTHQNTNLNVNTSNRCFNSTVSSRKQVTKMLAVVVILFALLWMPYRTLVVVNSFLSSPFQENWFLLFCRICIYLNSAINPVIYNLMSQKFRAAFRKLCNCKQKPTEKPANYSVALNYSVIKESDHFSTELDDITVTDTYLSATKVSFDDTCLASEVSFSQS
# [4] = molecular target: Vasopressin V1a receptor (Homo sapiens) (UniProt P37288); test: Binding affinity to human V1a receptor at 10 uM by radioligand binding assay
# Homo sapiens [5] = species on record: Homo sapiens; test: Binding affinity to L-type calcium channel diltiazem binding site (unknown origin) at 10 uM by radioligand binding assay
# Homo sapiens [6] = species on record: Homo sapiens; test: Binding affinity to GABA transporter (unknown origin) at 10 uM by radioligand binding assay
# [7] = molecular target: Sodium-dependent serotonin transporter (Homo sapiens) (UniProt P31645); test: Binding affinity to human 5-HT transporter at 10 uM by radioligand binding assay
# Chain of Sodium-dependent serotonin transporter (Homo sapiens) (P31645 whole entry, looked up): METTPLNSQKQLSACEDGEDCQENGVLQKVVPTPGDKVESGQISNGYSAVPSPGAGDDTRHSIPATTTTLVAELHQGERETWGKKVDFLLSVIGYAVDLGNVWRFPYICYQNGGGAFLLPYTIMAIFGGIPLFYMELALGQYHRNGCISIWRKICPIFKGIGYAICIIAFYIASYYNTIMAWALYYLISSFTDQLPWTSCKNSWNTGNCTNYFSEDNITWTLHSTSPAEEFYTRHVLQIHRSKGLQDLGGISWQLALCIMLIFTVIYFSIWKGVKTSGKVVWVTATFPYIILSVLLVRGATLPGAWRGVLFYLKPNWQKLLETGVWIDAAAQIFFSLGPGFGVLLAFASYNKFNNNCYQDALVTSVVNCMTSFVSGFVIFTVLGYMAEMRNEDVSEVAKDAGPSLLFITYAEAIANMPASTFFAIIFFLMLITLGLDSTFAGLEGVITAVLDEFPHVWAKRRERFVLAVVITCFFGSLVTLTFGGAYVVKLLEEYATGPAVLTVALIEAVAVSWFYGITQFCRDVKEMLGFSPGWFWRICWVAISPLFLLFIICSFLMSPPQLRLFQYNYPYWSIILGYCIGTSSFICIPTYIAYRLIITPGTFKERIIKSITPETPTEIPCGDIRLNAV
# [8] = molecular target: 3',5'-cyclic-AMP phosphodiesterase 4D (Homo sapiens) (UniProt Q08499); test: Binding affinity to human PDE4D2 at 10 uM
# Chain of 3',5'-cyclic-AMP phosphodiesterase 4D (Homo sapiens) (Q08499 whole entry): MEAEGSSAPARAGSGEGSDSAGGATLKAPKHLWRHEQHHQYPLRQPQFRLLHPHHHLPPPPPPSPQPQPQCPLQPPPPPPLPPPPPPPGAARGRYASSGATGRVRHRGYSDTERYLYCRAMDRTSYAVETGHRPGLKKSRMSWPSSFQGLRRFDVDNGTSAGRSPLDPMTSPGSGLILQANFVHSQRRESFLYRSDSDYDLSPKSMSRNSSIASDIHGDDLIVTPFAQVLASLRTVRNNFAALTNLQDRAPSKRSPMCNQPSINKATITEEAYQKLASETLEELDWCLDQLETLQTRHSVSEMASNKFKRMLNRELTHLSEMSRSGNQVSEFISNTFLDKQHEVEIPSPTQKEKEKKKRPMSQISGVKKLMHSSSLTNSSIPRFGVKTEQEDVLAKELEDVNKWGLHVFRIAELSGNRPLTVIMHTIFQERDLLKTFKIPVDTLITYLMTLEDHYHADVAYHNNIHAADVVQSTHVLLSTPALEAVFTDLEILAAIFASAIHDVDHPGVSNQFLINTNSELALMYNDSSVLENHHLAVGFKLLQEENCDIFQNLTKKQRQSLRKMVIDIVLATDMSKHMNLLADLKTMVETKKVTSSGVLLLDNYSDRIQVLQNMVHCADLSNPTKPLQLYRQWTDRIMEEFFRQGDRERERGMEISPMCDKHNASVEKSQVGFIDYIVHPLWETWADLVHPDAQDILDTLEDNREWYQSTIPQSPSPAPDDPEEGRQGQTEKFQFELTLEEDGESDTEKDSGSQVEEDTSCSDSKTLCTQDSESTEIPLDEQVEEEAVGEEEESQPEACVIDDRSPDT
# [9] = molecular target: Catechol O-methyltransferase (Homo sapiens) (UniProt P21964); test: Binding affinity to COMT (unknown origin) at 10 uM
# [10] = molecular target: 4-aminobutyrate aminotransferase, mitochondrial (Homo sapiens) (UniProt P80404); test: Binding affinity to GABA transaminase (unknown origin) at 10 uM
# [11] = molecular target: Kinesin-like protein KIF11 (Homo sapiens) (UniProt P52732); test: Binding affinity to human Eg5 at 10 uM
# [12] = molecular target: Histone deacetylase 4 (Homo sapiens) (UniProt P56524); test: Binding affinity to human HDAC4 at 10 uM
# Chain of Histone deacetylase 4 (Homo sapiens) (P56524 whole entry): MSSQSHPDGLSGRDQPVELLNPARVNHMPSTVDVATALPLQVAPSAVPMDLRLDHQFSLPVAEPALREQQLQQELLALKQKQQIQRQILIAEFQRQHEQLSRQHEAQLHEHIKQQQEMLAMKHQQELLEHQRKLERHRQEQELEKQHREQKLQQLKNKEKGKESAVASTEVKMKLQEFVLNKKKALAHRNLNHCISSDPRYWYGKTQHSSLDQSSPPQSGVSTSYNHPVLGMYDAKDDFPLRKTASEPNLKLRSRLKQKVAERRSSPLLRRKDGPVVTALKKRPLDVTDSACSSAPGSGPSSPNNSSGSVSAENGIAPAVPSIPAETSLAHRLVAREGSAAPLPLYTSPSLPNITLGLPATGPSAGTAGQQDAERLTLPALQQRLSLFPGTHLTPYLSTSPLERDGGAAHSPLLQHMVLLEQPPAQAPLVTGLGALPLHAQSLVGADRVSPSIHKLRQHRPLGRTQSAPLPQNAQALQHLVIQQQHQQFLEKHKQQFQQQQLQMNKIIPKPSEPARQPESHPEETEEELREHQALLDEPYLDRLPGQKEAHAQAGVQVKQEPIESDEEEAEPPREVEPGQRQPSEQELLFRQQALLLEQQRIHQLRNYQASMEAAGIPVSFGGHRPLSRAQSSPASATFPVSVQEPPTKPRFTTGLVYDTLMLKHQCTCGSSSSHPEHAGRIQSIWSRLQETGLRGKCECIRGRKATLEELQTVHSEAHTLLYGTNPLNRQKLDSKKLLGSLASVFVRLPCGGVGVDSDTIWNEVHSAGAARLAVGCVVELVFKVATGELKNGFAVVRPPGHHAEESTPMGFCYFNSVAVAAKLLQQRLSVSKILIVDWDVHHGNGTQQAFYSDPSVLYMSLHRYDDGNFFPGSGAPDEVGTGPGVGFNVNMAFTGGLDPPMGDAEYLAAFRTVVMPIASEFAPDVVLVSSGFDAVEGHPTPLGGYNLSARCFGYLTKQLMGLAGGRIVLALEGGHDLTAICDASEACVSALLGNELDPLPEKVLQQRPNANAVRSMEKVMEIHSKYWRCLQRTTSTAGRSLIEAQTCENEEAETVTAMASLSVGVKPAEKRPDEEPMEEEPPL
# [13] = molecular target: Protein deacetylase HDAC6 (Homo sapiens) (UniProt Q9UBN7); test: Binding affinity to human HDAC6 at 10 uM
# Homo sapiens [14] = species on record: Homo sapiens; test: Activation of human guanylyl cyclase at 10 uM
# [15] = molecular target: T1, Prostaglandin G/H synthase 1 (Ovis aries, UniProt P05979); test: Inhibition of ovine COX1 assessed as production of PGF2-alpha preincubated with compound followed by the addition of 5 uM arachidonic acid as substrate by enzyme immunoassay
# T1 sequence (P05979 whole entry): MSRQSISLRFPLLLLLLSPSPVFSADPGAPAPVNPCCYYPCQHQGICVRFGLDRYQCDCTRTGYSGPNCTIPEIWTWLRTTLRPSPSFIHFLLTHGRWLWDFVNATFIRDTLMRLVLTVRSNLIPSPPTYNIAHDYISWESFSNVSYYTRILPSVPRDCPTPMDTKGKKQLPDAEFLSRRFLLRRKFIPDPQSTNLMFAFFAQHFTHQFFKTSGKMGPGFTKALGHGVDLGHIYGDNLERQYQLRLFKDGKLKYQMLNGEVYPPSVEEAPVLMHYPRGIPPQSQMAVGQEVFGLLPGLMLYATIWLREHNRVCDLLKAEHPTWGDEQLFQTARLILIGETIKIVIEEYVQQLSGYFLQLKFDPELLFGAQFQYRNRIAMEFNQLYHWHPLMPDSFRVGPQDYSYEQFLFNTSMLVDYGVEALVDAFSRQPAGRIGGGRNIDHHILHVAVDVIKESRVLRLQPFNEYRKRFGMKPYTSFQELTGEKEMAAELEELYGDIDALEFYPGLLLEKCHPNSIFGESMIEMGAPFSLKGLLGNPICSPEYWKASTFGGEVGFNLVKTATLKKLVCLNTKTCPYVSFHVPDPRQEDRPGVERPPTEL
# Mus musculus = test: In-vivo inhibition of COX in mouse plasma assessed as decrease in TXA2 level at 1 mg/kg, iv after 1 hr by LC-MS/MS analysis; format: functional, organism-based
# [16] = molecular target: Adenosine receptor A1 (Homo sapiens) (UniProt P30542); test: Binding affinity to human adenosine A1 receptor at 10 uM by radioligand binding assay
# Chain of Adenosine receptor A1 (Homo sapiens) (P30542 whole entry): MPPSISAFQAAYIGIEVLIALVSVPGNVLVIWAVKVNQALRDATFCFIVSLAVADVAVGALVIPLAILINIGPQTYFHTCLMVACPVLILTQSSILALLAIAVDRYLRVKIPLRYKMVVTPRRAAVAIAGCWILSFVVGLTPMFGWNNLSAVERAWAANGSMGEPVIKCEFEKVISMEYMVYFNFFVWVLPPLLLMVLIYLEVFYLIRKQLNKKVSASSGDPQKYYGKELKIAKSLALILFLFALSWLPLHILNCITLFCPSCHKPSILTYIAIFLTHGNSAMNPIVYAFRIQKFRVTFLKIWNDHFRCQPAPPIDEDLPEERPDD
# [17] = molecular target: B2 bradykinin receptor (Homo sapiens) (UniProt P30411); test: Binding affinity to human bradykinin 2 receptor at 10 uM by radioligand binding assay
# Chain of B2 bradykinin receptor (Homo sapiens) (P30411 whole entry): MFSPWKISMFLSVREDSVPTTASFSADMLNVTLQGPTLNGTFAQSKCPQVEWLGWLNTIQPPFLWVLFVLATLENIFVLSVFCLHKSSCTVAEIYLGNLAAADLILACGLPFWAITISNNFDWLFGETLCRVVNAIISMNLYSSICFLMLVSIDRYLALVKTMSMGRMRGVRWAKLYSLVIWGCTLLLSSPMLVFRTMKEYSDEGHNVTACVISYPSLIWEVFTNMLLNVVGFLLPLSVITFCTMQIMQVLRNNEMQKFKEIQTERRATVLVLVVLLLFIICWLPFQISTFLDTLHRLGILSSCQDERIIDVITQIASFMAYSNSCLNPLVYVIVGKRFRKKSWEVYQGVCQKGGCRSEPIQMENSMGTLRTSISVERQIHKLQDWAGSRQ
# [18] = molecular target: D(1A) dopamine receptor (Homo sapiens) (UniProt P21728); test: Binding affinity to human dopamine D1 receptor at 10 uM by radioligand binding assay
# Chain of D(1A) dopamine receptor (Homo sapiens) (P21728 whole entry): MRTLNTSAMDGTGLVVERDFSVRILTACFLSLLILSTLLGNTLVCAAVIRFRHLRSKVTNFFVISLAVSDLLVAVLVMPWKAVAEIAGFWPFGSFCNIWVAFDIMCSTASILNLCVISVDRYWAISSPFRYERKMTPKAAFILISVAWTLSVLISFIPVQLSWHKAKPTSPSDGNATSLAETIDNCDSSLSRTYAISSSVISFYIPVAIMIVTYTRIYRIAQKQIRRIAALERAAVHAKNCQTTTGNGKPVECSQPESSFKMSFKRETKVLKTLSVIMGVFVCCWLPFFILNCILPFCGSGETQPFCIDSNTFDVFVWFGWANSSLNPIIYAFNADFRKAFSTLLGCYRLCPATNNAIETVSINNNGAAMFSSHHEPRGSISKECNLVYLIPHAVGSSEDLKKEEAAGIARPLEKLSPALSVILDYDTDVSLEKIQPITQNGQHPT
# [19] = molecular target: D(3) dopamine receptor (Homo sapiens) (UniProt P35462); test: Binding affinity to human dopamine D3 receptor at 10 uM by radioligand binding assay
# Homo sapiens [20] = species on record: Homo sapiens; test: Binding affinity to AMPA receptor (unknown origin) at 10 uM by radioligand binding assay
# [21] = molecular target: Glutamate [NMDA] receptor (Homo sapiens) (UniProt Q05586+Q12879+Q13224+O15399+O60391+Q14957+Q8TCU5); test: Binding affinity to NMDA receptor (unknown origin) at 10 uM by radioligand binding assay
# [22] = molecular target: Melatonin receptor type 1A (Homo sapiens) (UniProt P48039); test: Binding affinity to human melatonin receptor type 1 at 10 uM by radioligand binding assay
# [23] = molecular target: Substance-P receptor (Homo sapiens) (UniProt P25103); test: Binding affinity to human NK1 receptor at 10 uM by radioligand binding assay
# [24] = molecular target: Substance-K receptor (Homo sapiens) (UniProt P21452); test: Binding affinity to human NK2 receptor at 10 uM by radioligand binding assay
# [25] = molecular target: Prostaglandin E2 receptor EP2 subtype (Homo sapiens) (UniProt P43116); test: Binding affinity to human EP2 receptor at 10 uM by radioligand binding assay
# Chain of Prostaglandin E2 receptor EP2 subtype (Homo sapiens) (P43116 whole entry): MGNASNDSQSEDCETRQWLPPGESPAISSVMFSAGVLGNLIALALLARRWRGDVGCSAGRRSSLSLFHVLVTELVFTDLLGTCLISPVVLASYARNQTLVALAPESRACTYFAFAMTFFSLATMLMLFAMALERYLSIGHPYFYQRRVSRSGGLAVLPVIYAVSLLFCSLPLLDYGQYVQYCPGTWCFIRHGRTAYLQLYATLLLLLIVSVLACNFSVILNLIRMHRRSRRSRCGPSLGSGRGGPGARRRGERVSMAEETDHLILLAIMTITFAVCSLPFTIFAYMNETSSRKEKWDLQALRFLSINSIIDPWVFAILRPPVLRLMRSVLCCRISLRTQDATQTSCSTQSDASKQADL
# [26] = molecular target: Prostaglandin E2 receptor EP4 subtype (Homo sapiens) (UniProt P35408); test: Binding affinity to human EP4 receptor at 10 uM by radioligand binding assay
# Chain of Prostaglandin E2 receptor EP4 subtype (Homo sapiens) (P35408 whole entry): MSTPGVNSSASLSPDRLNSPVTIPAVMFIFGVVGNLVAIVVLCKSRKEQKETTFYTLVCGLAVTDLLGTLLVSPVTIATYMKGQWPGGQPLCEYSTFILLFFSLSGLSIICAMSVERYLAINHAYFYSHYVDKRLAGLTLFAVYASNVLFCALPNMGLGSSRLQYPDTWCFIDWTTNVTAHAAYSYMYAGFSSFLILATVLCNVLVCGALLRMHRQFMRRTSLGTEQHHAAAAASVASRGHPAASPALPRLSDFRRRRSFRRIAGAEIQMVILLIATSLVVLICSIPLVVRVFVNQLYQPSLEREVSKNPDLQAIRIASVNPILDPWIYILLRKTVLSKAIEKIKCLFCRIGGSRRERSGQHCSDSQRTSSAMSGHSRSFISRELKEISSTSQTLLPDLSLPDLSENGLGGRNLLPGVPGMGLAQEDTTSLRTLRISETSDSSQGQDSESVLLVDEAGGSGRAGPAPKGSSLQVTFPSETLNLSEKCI
compound,measurement,setting,value
CCCCCCNC(=O)Oc1cccc(-c2ccc([C@H](C)C(=O)O)cc2F)c1,Activity,[1],-10.5%
same,Activity,[2],-9.5%
same,Activity,[3],-14.9%
same,Activity,[4],0.4%
same,Activity,Homo sapiens [5],-19.5%
same,Activity,Homo sapiens [6],-3.3%
same,Activity,[7],-1.4%
same,Activity,[8],0.5%
same,Activity,[9],-4.1%
same,Activity,[10],7.6%
same,Activity,[11],3.5%
same,Activity,[12],-8.7%
same,Activity,[13],-10.6%
same,Activity,Homo sapiens [14],6.7%
same,IC50,[15],0.29 nM
same,inhibition,Mus musculus,Active
same,Activity,[16],-8%
same,Activity,[17],-4.3%
same,Activity,[18],-5.6%
same,Activity,[19],0.7%
same,Activity,Homo sapiens [20],-4.6%
same,Activity,[21],3.3%
same,Activity,[22],-9.9%
same,Activity,[23],-6.3%
same,Activity,[24],-1.6%
same,Activity,[25],45%
same,Activity,[26],18.7%
